Laboratory results: patent US20050119253A1, “Method of treating mental disorders using of D4 and 5-HT2A antagonists, inverse agonists or partial agonists” (priority 2003, published 2005)
Like-named read-outs stand apart in the source and are kept apart here. Blank lines part the entries; values can stand above or below the compound they belong to.

Tests used:
Assay type in all cases: binding
D1 = D1 (Homo sapiens, UniProt P21728); assay: pKi of test compounds, D1 receptor
D3 = D3 (Homo sapiens, UniProt P35462); assay: pKi of test compounds, D3 receptor
5HT2B = 5HT2B (Homo sapiens, UniProt P41595); assay: pKi of test compounds, 5HT2B receptor
Alpha1A = target: T1, Alpha1A (Homo sapiens, UniProt P35348); assay: pKi of test compounds, adrenergic receptor Alpha1A
T1 sequence (P35348 1-466): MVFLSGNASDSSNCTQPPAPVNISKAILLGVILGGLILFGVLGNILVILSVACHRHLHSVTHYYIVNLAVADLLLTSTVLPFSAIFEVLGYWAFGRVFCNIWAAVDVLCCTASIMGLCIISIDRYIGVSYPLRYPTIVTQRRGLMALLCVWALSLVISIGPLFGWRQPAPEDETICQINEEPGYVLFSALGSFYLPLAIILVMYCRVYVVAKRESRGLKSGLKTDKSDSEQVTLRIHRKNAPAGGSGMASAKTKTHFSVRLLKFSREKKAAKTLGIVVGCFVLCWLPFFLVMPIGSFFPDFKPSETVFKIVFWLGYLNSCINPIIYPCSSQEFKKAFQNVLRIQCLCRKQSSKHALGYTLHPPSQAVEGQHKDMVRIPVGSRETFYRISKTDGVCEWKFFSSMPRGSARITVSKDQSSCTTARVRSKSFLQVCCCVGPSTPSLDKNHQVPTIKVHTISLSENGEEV

5HT1B = 5HT1B (Homo sapiens, UniProt P28222); assay: pKi of test compounds, 5HT1B receptor
Alpha2A = target: T2, Alpha2A (Homo sapiens, UniProt P08913); assay: pKi of test compounds, adrenergic receptor Alpha2A
T2 sequence (P08913 1-465): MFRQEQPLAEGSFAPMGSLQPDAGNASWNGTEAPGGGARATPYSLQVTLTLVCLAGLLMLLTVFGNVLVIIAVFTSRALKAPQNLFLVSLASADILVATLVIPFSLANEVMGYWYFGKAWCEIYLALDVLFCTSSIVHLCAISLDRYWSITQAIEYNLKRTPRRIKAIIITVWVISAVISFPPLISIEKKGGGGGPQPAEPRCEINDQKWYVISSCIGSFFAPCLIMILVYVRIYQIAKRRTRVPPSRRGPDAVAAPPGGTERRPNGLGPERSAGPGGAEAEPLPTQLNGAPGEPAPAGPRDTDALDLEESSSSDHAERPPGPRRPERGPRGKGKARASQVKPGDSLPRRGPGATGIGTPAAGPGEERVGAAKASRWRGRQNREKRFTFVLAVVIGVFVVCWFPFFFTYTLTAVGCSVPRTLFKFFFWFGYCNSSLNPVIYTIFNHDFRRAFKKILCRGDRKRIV

5HT2C = target: T3, 5HT2C (Homo sapiens, UniProt P28335); assay: pKi of test compounds, 5HT2C receptor
T3 sequence (P28335 33-458): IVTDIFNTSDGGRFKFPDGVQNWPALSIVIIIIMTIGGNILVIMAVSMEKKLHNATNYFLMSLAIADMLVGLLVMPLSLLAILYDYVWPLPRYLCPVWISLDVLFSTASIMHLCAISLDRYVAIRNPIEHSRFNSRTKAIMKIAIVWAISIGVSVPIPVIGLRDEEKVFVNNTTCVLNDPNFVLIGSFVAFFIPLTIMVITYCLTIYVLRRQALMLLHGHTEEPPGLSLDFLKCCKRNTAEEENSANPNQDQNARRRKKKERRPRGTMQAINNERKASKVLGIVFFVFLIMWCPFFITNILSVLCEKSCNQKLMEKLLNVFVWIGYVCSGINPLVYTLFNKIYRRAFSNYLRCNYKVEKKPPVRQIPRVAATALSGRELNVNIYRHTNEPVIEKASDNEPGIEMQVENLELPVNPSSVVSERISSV

5HT1D = 5HT1D (Homo sapiens, UniProt P28221); assay: pKi of test compounds, 5HT1D receptor
D2 = D2 (Homo sapiens, UniProt P14416); assay: pKi of test compounds, D2 receptor
5HT1A = target: T4, 5HT1A (Homo sapiens, UniProt P08908); assay: pKi of test compounds, 5HT1A receptor
T4 sequence (P08908 1-422): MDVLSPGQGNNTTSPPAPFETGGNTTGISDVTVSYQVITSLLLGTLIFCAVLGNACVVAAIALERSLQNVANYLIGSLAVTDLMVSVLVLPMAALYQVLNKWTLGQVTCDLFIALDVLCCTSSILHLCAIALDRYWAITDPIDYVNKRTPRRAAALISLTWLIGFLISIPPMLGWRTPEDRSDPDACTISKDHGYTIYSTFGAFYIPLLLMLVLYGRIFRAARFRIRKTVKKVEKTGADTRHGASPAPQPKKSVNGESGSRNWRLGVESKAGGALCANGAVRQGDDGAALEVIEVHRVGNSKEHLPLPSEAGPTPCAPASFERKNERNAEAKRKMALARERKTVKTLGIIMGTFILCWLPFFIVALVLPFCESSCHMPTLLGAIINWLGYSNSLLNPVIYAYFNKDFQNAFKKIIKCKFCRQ

Alpha2B = Alpha2B (Homo sapiens, UniProt P18089); assay: pKi of test compounds, adrenergic receptor Alpha2B
Alpha2C = target: T5, Alpha2C (Homo sapiens, UniProt P18825); assay: pKi of test compounds, adrenergic receptor Alpha2C
T5 sequence (P18825 1-462): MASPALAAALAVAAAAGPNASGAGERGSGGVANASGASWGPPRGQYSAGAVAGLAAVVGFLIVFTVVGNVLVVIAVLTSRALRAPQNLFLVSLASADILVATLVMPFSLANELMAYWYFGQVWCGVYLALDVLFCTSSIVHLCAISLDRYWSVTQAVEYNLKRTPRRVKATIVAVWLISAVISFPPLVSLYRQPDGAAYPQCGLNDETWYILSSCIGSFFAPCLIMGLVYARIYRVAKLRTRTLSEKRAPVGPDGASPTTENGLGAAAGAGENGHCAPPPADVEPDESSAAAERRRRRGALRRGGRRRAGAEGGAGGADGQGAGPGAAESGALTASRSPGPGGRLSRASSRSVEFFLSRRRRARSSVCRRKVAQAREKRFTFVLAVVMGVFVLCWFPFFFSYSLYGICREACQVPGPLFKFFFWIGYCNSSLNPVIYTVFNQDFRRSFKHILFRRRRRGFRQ

5-HT2A receptor = 5-HT2A receptor (Homo sapiens, UniProt P28223); assay: pKi of test compounds, 5-HT2A receptor
D4 receptor = target: T6, D4 receptor (Homo sapiens, UniProt P21917); assay: pKi of test compounds, D4 receptor
T6 sequence (P21917 1-419): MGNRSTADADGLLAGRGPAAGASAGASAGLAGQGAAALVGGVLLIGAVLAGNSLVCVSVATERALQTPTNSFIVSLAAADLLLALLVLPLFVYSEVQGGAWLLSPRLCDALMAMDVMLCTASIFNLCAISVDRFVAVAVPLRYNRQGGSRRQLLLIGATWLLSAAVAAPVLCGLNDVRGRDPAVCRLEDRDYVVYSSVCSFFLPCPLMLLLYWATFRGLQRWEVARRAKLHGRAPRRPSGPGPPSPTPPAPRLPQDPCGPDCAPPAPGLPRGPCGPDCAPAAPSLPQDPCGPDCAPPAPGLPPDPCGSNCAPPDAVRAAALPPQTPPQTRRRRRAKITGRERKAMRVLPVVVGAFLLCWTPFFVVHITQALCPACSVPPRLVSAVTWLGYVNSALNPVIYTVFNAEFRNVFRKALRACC

5HT1E = 5HT1E (Homo sapiens, UniProt P28566); assay: pKi of test compounds, 5HT1E receptor
[1] = read-out: pKi 5HT1D (converted)

Sequence of 5HT1D (P28221 whole entry, species assumed): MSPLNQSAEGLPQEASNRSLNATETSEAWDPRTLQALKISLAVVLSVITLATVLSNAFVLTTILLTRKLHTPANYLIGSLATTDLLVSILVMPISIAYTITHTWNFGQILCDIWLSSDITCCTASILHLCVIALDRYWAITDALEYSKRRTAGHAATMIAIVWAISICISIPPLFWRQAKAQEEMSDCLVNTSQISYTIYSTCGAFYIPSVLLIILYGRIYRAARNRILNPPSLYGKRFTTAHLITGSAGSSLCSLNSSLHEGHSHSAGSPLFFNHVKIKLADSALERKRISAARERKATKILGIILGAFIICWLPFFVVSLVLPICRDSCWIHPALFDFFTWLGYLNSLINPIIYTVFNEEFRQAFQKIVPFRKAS
Sequence of 5HT1B (P28222 whole entry, species assumed): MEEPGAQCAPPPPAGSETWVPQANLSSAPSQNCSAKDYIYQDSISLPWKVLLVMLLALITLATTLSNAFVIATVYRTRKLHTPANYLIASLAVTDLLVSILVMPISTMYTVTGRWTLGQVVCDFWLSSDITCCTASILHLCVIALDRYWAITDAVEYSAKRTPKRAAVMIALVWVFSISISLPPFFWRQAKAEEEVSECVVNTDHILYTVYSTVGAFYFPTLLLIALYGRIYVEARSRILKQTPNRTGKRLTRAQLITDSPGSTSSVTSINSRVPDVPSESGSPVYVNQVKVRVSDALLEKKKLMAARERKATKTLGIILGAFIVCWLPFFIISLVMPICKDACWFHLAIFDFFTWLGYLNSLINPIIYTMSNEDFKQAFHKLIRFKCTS
Sequence of D3 (P35462 whole entry): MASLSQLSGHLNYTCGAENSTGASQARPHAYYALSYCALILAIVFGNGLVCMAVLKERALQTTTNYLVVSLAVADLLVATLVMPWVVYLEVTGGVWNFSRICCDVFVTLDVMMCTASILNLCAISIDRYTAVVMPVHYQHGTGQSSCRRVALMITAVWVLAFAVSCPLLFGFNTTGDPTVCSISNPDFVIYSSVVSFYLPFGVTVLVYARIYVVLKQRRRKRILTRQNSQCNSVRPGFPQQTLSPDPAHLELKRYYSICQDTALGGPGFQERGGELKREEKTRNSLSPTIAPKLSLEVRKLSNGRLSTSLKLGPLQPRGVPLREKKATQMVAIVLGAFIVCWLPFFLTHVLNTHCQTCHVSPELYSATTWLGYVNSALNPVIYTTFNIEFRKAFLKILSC
Sequence of D2 (P14416 whole entry): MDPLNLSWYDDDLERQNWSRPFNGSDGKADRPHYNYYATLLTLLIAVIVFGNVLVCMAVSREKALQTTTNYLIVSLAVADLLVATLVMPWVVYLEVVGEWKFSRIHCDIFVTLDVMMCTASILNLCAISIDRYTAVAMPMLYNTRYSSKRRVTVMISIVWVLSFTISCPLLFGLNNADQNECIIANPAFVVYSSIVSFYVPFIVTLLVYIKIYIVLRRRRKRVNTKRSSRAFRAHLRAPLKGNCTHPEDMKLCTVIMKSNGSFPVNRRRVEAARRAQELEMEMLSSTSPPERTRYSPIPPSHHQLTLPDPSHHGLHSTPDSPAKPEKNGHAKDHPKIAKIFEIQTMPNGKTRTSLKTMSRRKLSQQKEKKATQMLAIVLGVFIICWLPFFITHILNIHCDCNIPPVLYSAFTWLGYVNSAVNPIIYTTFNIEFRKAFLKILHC
Sequence of D1 (P21728 whole entry): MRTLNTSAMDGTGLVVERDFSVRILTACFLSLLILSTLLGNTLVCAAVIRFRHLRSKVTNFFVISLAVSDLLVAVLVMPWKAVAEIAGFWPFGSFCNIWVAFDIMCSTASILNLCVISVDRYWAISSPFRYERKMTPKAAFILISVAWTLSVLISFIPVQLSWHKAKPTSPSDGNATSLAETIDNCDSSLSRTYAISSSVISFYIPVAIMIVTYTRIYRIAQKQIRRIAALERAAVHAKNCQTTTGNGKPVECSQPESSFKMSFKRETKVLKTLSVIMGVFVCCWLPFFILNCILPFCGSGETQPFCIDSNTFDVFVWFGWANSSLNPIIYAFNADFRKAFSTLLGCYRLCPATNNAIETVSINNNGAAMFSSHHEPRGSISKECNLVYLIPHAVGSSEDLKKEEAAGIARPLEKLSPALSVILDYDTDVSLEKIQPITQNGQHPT
Sequence of 5-HT2A receptor (P28223 whole entry): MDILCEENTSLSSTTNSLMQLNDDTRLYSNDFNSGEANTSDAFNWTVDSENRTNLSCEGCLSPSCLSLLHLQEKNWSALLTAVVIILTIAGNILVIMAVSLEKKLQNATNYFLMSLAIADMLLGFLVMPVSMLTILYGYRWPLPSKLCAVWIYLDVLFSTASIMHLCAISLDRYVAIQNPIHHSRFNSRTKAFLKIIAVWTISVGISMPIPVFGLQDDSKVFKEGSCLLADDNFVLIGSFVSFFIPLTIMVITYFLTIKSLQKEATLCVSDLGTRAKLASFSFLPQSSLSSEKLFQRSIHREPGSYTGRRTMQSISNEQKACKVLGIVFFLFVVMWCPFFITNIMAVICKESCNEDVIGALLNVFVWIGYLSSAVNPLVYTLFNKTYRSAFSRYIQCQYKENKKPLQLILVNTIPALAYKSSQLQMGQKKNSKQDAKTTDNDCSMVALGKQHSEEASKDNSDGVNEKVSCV
Sequence of Alpha2B (P18089 whole entry): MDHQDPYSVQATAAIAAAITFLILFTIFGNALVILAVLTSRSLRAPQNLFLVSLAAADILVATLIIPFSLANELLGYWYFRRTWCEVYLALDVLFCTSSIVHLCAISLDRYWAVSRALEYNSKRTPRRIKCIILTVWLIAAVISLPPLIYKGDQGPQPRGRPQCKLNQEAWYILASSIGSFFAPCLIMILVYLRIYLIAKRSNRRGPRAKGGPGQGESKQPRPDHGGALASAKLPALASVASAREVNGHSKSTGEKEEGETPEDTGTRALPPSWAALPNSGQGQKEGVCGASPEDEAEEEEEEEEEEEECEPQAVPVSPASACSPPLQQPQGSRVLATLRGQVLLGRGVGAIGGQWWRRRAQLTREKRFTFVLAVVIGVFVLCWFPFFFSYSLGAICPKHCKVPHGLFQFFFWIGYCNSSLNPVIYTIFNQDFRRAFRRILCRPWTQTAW
Sequence of 5HT2B (P41595 whole entry, species assumed): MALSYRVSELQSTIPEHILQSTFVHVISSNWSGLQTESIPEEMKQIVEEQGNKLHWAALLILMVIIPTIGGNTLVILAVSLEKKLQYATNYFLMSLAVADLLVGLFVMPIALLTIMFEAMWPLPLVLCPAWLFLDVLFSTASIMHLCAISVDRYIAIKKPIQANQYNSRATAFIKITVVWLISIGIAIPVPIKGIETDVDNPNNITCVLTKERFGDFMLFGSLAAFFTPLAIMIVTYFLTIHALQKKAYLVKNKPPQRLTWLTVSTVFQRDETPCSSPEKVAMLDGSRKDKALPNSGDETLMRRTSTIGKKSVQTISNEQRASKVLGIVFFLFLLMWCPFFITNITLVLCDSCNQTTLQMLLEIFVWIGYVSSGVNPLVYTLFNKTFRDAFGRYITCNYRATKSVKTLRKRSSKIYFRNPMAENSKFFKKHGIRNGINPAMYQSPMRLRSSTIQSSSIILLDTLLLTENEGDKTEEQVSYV
Sequence of 5HT1E (P28566 whole entry, species assumed): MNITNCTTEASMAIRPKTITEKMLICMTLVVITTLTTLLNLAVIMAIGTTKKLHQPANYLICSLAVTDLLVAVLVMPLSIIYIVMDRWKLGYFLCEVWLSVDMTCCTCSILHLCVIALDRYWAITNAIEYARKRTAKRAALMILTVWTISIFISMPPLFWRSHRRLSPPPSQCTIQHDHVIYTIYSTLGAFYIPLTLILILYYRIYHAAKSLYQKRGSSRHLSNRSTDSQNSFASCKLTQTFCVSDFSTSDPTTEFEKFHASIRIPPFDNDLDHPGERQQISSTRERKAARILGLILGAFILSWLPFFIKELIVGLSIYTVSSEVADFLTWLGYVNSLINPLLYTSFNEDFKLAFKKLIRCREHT

pKi D1 (D1): 6-7 | pKi D3 (D3): >9 | pKi 5HT2B (5HT2B): 6-7 | pKi Alpha1A (Alpha1A): 6-7 | pKi 5HT1B (5HT1B): 6-7 | pKi Alpha2A (Alpha2A): <6 | pKi 5HT2C (5HT2C): 7-8 | pKi 5HT1D (5HT1D): 6-7 | pKi D2 (D2): 7-8 | pKi 5HT1A (5HT1A): <6
Structure (SMILES): N#Cc1ccc2c(c1)[C@H]1CN(CCCCNC(=O)c3ccc(-c4ccccc4)cc3)C[C@@H]1CO2 [S33084]

Ki (D1): > 1000 nM | Ki (D3; read-out: pKi D3 (converted)): 1 to 10 nM | Ki (Alpha1A): > 1000 nM | Ki (Alpha2A): > 1000 nM | Ki (5HT2C): > 1000 nM | Ki (5HT1A): > 1000 nM
Structure (SMILES): CCN1CCC[C@H]1CNC(=O)c1c(O)c(Cl)cc(Cl)c1OC [Raciopride]

Structure (SMILES): O=C1NCCN1CCN1CCC(c2cn(-c3ccc(F)cc3)c3ccc(Cl)cc23)CC1 [Sertindole]
Ki (D1): 10 to 100 nM | Ki (Alpha1A): < 1 nM | Ki (5HT1B): 10 to 100 nM | Ki (5HT1D; [1]): 10 to 100 nM

Ki (Alpha2B): 1 to 10 nM | Ki (Alpha1A): 100 to 1000 nM | Ki (Alpha2A): 1 to 10 nM | Ki (Alpha2C): 1 to 10 nM | Ki (5HT1A): 100 to 1000 nM
Structure (SMILES): Fc1cccc2c1O[C@H]1CNC[C@@H]1O2 [Fluparoxan]

Ki (D3): 1 to 10 nM | Ki (Alpha1A): < 1 nM | Ki (Alpha2A): 100 to 1000 nM | Ki (5-HT2A receptor): < 1 nM | Ki (D2): 1 to 10 nM | Ki (D4 receptor): 1 to 10 nM
Structure (SMILES): O=C1CC2(CCCC2)CC(=O)N1CCCCN1CCN(c2nsc3ccccc23)CC1 [Tiospirone]

Structure (SMILES): COC(=O)[C@@H]1[C@H]2C[C@H]3c4[nH]c5ccccc5c4CCN3C[C@@H]2CC[C@@H]1O [Yohimbine]
Ki (5HT1D): 10 to 100 nM | Ki (D2; read-out: pKi D2 (converted)): 100 to 1000 nM

pKi D1 (D1): 7-8 | pKi D3 (D3): 6-7 | pKi Alpha1A (Alpha1A): >9 | pKi Alpha2A (Alpha2A): 6-7 | pKi 5HT2C (5HT2C): 6-7 | pKi 5-HT2A (5-HT2A receptor): 8-9 | pKi D2 (D2): 7-8 | pKi D4 (D4 receptor; D4): 8-9 | pKi 5HT1A (5HT1A): 7-8
Structure (SMILES): O=C1N(CCN2CCC(c3noc4cc(F)ccc34)CC2)CCN1c1ccccc1 [S18327]

Structure (SMILES): CN(C)CCOC1=Cc2ccccc2Sc2ccc(Cl)cc21 [Zotepine]
Ki (5HT1B): 10 to 100 nM | Ki (5HT1E): 100 to 1000 nM | Ki (5HT1D; [1]): 10 to 100 nM
